Data: PubChem BioAssay (NCI)
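These data come from cells grown in 96-well plates and exposed to compound for 48 hours at five concentrations. GI50 is the concentration that inhibits growth by half. Definition used: TGI = concentration required for complete inhibition of growth.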

Assays:
Assay in all cases: inhibition of tumour cell growth, NCI panel, 48 h
[1] = test system: CCRF-CEM leukemia
[2] = test system: HOP-92 NSCLC
[3] = test system: HL-60(TB) leukemia
[4] = test system: U251 CNS
[5] = test system: SF-539 CNS
[6] = test system: MDA-MB-435
[7] = test system: SNB-19 CNS
[8] = test system: HOP-62 NSCLC
[9] = test system: BT-549 breast
[10] = test system: OVCAR-3 ovarian
[11] = test system: HT29 colon
[12] = test system: UACC-62 melanoma
[13] = test system: CAKI-1 renal
[14] = test system: RXF 393 renal
[15] = test system: LOX IMVI melanoma
[16] = test system: SNB-75 CNS
[17] = test system: HCT-15 colon
[18] = test system: IGROV1 ovarian
[19] = test system: OVCAR-8 ovarian
[20] = test system: KM12 colon
[21] = test system: COLO 205 colon
[22] = test system: PC-3 prostate
[23] = test system: DU-145 prostate
[24] = test system: NCI-H522 lung
[25] = test system: A549 NSCLC
[26] = test system: SK-MEL-28 melanoma
[27] = test system: 786-0 renal
[28] = test system: ACHN renal
[29] = test system: MDA-MB-231 breast
[30] = test system: SK-MEL-5 melanoma
[31] = test system: EKVX NSCLC
[32] = test system: SF-268 CNS
[33] = test system: K-562 leukemia
[34] = test system: NCI/ADR-RES ovarian
[35] = test system: SN12C renal
[36] = test system: HCC-2998 colon
[37] = test system: NCI-H23 lung
[38] = test system: SF-295 CNS
[39] = test system: MALME-3M melanoma
[40] = test system: SK-OV-3 ovarian
[41] = test system: RPMI-8226 leukemia
[42] = test system: T-47D breast
[43] = test system: TK-10 renal
[44] = test system: SW-620 colon
[45] = test system: SK-MEL-2 melanoma
[46] = test system: SR leukemia
[47] = test system: M14 melanoma
[48] = test system: OVCAR-4 ovarian
[49] = test system: NCI-H460 lung
[50] = test system: NCI-H226 lung
[51] = test system: OVCAR-5 ovarian
[52] = test system: UACC-257 melanoma
[53] = test system: UO-31 renal
[54] = test system: MCF7 breast
[55] = test system: MOLT-4 leukemia
[56] = test system: HS 578T breast
[57] = test system: HCT-116 colon

Cc1c2c(nn1-c1ccc(S/N=C3\SCC(=O)CN3Cc3ccccc3)cc1)-c1ccccc1CC2
GI50 [1]: 6.45 µM | TGI [1]: > 100 µM | GI50 [2]: > 100 µM | TGI [2]: > 100 µM | GI50 [3]: 34.1 µM | TGI [3]: > 100 µM | GI50 [4]: 21.8 µM | TGI [4]: 78.9 µM | GI50 [5]: 29.5 µM | TGI [5]: 58.2 µM | GI50 [6]: 20.6 µM | TGI [6]: 48.5 µM | GI50 [7]: > 100 µM | TGI [7]: > 100 µM | GI50 [8]: > 100 µM | TGI [8]: > 100 µM | GI50 [9]: 22.5 µM | TGI [9]: 54.7 µM | GI50 [10]: 25.2 µM | TGI [10]: 68.3 µM | GI50 [11]: 51.5 µM | TGI [11]: > 100 µM | GI50 [12]: 28.3 µM | TGI [12]: > 100 µM | GI50 [13]: 26.6 µM | TGI [13]: 87.6 µM | GI50 [14]: 22.6 µM | TGI [14]: 54.7 µM | GI50 [15]: 10.7 µM | TGI [15]: 25 µM | GI50 [16]: 75.9 µM | TGI [16]: > 100 µM | GI50 [17]: 31.7 µM | TGI [17]: > 100 µM | GI50 [18]: 24 µM | TGI [18]: > 100 µM | GI50 [19]: 41 µM | TGI [19]: > 100 µM | GI50 [20]: 60.1 µM | TGI [20]: > 100 µM | GI50 [21]: 63.4 µM | TGI [21]: > 100 µM | GI50 [22]: 27.7 µM | TGI [22]: > 100 µM | GI50 [23]: 50.5 µM | TGI [23]: > 100 µM | GI50 [24]: 22.6 µM | TGI [24]: 59.7 µM | GI50 [25]: 46.7 µM | TGI [25]: > 100 µM | GI50 [26]: 24.6 µM | TGI [26]: 62.4 µM | GI50 [27]: 89.2 µM | TGI [27]: > 100 µM | GI50 [28]: 32.9 µM | TGI [28]: > 100 µM | GI50 [29]: 24.8 µM | TGI [29]: 87.3 µM | GI50 [30]: 9.08 µM | TGI [30]: 29.5 µM | GI50 [31]: 46.6 µM | TGI [31]: > 100 µM | GI50 [32]: 17.6 µM | TGI [32]: 46.1 µM | GI50 [33]: 30.1 µM | TGI [33]: > 100 µM | GI50 [34]: 39.2 µM | TGI [34]: > 100 µM | GI50 [35]: 26.7 µM | TGI [35]: 99.7 µM | GI50 [36]: 72.9 µM | TGI [36]: > 100 µM | GI50 [37]: 49.8 µM | TGI [37]: > 100 µM | GI50 [38]: 25.7 µM | TGI [38]: 91.5 µM | GI50 [39]: 41.4 µM | TGI [39]: 82.7 µM | GI50 [40]: 88.9 µM | TGI [40]: > 100 µM | GI50 [41]: 31.1 µM | TGI [41]: > 100 µM | GI50 [42]: 82.9 µM | TGI [42]: > 100 µM | GI50 [43]: 50.4 µM | TGI [43]: > 100 µM | GI50 [44]: 25.5 µM | TGI [44]: > 100 µM | GI50 [45]: 58.2 µM | TGI [45]: > 100 µM | GI50 [46]: 8.35 µM | TGI [46]: > 100 µM | GI50 [47]: 46.5 µM | TGI [47]: > 100 µM | GI50 [48]: 96.7 µM | TGI [48]: > 100 µM | GI50 [49]: 29.4 µM | TGI [49]: > 100 µM | GI50 [50]: 38.5 µM | TGI [50]: > 100 µM | GI50 [51]: > 100 µM | TGI [51]: > 100 µM | GI50 [52]: 38.2 µM | TGI [52]: > 100 µM | GI50 [53]: 64.3 µM | TGI [53]: > 100 µM | GI50 [54]: 3.74 µM | TGI [54]: 35 µM | GI50 [55]: 9.62 µM | TGI [55]: > 100 µM

c1ccc(Cc2cc(-c3ccccc3)n[nH]2)cc1
TGI [1]: 27 µM | TGI [3]: 39.3 µM | TGI [4]: 27.9 µM | TGI [6]: 22.8 µM | TGI [7]: 82.7 µM | TGI [8]: 92.9 µM | TGI [10]: 16.8 µM | TGI [11]: 23.2 µM | TGI [12]: 27.4 µM | TGI [13]: 32.9 µM | TGI [14]: 22.1 µM | TGI [15]: 28.3 µM | TGI [16]: 15.8 µM | TGI [17]: 53 µM | TGI [18]: 34 µM | TGI [19]: 30.9 µM | TGI [20]: 28.8 µM | TGI [21]: 31.2 µM | TGI [22]: 34.2 µM | TGI [23]: 26.2 µM | TGI [24]: 33.2 µM | TGI [25]: 26 µM | TGI [26]: 25.8 µM | TGI [27]: 43.4 µM | TGI [28]: 36.4 µM | TGI [29]: 25.8 µM | TGI [31]: 27.5 µM | TGI [32]: 57.6 µM | TGI [33]: 25.6 µM | TGI [34]: 49.4 µM | TGI [35]: 26.3 µM | TGI [38]: 19.5 µM | TGI [40]: > 100 µM | TGI [42]: > 100 µM | TGI [56]: 36.7 µM | TGI [43]: 42.5 µM | TGI [44]: 28.7 µM | TGI [45]: 31.8 µM | TGI [46]: 32.3 µM | TGI [47]: 80.1 µM | TGI [49]: 33.3 µM | TGI [50]: 33.5 µM | TGI [57]: 88.9 µM | TGI [51]: 47.9 µM | TGI [52]: 31.5 µM | TGI [53]: 49.8 µM | TGI [54]: 40.3 µM | TGI [55]: 23.1 µM
